According to US20040063662A1, “Selenophene anti-tumor agents” (priority 1996, published 2004):

Legend:
[1] = test system: OVCAR-3; assay: NCI human tumor cell panel: OVCAR-3 (Ovarian Cancer); format: cell-based
[2] = test system: U251; assay: NCI human tumor cell panel: U251 (CNS Cancer); format: cell-based
[3] = test system: PC-3; assay: NCI human tumor cell panel: PC-3 (Prostate Cancer); format: cell-based
[4] = test system: UACC-257; assay: NCI human tumor cell panel: UACC-257 (Melanoma); format: cell-based
[5] = test system: UACC-62; assay: NCI human tumor cell panel: UACC-62 (Melanoma); format: cell-based
[6] = test system: SF-539; assay: NCI human tumor cell panel: SF-539 (CNS Cancer); format: cell-based
[7] = test system: MOLT-4; assay: NCI human tumor cell panel: MOLT-4 (Leukemia); format: cell-based
[8] = test system: SK-MEL-28; assay: NCI human tumor cell panel: SK-MEL-28 (Melanoma); format: cell-based
[9] = test system: MCF7/ADR-RES; assay: NCI human tumor cell panel: MCF7/ADR-RES (Breast Cancer); format: cell-based
[10] = test system: MCF7; assay: NCI human tumor cell panel: MCF7 (Breast Cancer); format: cell-based
[11] = test system: SF-295; assay: NCI human tumor cell panel: SF-295 (CNS Cancer); format: cell-based
[12] = test system: SR; assay: NCI human tumor cell panel: SR (Leukemia); format: cell-based
[13] = test system: HOP-92; assay: NCI human tumor cell panel: HOP-92 (Non-Small Cell Lung Cancer)
[14] = test system: NCI-H460; assay: NCI human tumor cell panel: NCI-H460 (Non-Small Cell Lung Cancer); format: cell-based
[15] = test system: HOP-62; assay: NCI human tumor cell panel: HOP-62 (Non-Small Cell Lung Cancer); format: cell-based
[16] = test system: M14; assay: NCI human tumor cell panel: M14 (Melanoma); format: cell-based
[17] = test system: MALME-3M; assay: NCI human tumor cell panel: MALME-3M (Melanoma); format: cell-based; settings: Malme-3M
[18] = test system: HT29; assay: NCI human tumor cell panel: HT29 (Colon Cancer); format: cell-based
[19] = test system: HCT-116; assay: NCI human tumor cell panel: HCT-116 (Colon Cancer); format: cell-based
[20] = test system: A498; assay: NCI human tumor cell panel: A498 (Renal Cancer); format: cell-based
[21] = test system: TK-10; assay: NCI human tumor cell panel: TK-10 (Renal Cancer); format: cell-based
[22] = test system: MDA-N; assay: NCI human tumor cell panel: MDA-N (Breast Cancer); format: cell-based
[23] = test system: OVCAR-4; assay: NCI human tumor cell panel: OVCAR-4 (Ovarian Cancer); format: cell-based
[24] = test system: SNB-19; assay: NCI human tumor cell panel: SNB-19 (CNS Cancer); format: cell-based
[25] = test system: CCRF-CEM; assay: NCI human tumor cell panel: CCRF-CEM (Leukemia); format: cell-based
[26] = test system: A549/ATCC; assay: NCI human tumor cell panel: A549/ATCC (Non-Small Cell Lung Cancer); format: cell-based
[27] = test system: SK-MEL-5; assay: NCI human tumor cell panel: SK-MEL-5 (Melanoma); format: cell-based
[28] = test system: NCI-H23; assay: NCI human tumor cell panel: NCI-H23 (Non-Small Cell Lung Cancer); format: cell-based; settings: NCI-H23, read-out: Log10 GI50 (converted)
[29] = read-out: Log10 GI50 (converted)
[30] = read-out: Log10 TGI (converted)

Compound: OCc1ccc(-c2ccc(-c3ccc[se]3)[se]2)[se]1 [compound 675246]
- GI50 ([1]; OVCAR-3, read-out: Log10 GI50 (converted)): 0.0603 µM
- IC (TGI) ([1]; OVCAR-3, read-out: Log10 TGI (converted)): 1.29 µM
- GI50 ([2]; U-251, U251, read-out: Log10 GI50 (converted)): 0.0708 µM
- IC (TGI) ([2]; U-251, U251, read-out: Log10 TGI (converted)): 12.3 µM
- GI50 ([3]; PC-3, read-out: Log10 GI50 (converted)): 3.8 µM
- IC (TGI) ([3]; PC-3, read-out: Log10 TGI (converted)): 13.2 µM
- GI50 ([4]; UACC-257, read-out: Log10 GI50 (converted)): 0.0501 µM
- IC (TGI) ([4]; UACC-257, read-out: Log10 TGI (converted)): 0.224 µM
- GI50 ([5]; UACC-62, read-out: Log10 GI50 (converted)): 0.0102 µM
- IC (TGI) ([5]; UACC-62, read-out: Log10 TGI (converted)): 11.2 µM
- GI50 ([6]; SF-539, read-out: Log10 GI50 (converted)): 12.3 µM
- IC (TGI) ([6]; SF-539, read-out: Log10 TGI (converted)): 25.1 µM
- GI50 ([7]; MOLT-4, read-out: Log10 GI50 (converted)): 3.24 µM
- IC (TGI) ([7]; MOLT-4, read-out: Log10 TGI (converted)): 12 µM
- GI50 ([8]; SK-MEL-28, read-out: Log10 GI50 (converted)): 7.41 µM
- IC (TGI) ([8]; SK-MEL-28, read-out: Log10 TGI (converted)): 21.9 µM
- GI50 [9, 29]: 5.13 µM
- IC (TGI) [9, 30]: 46.8 µM
- GI50 ([10]; MCF7, read-out: Log10 GI50 (converted)): 0.145 µM
- IC (TGI) ([10]; MCF7, read-out: Log10 TGI (converted)): 3.8 µM
- GI50 ([11]; SF-295, read-out: Log10 GI50 (converted)): 10.7 µM
- IC (TGI) ([11]; SF-295, read-out: Log10 TGI (converted)): 27.5 µM
- GI50 [12, 29]: 6.61 µM
- IC (TGI) [12, 30]: > 100 µM
- GI50 ([13]; HOP-92, read-out: Log10 GI50 (converted)): 2.63 µM
- IC (TGI) ([13]; HOP-92, read-out: Log10 TGI): 11.2 µM
- GI50 ([14]; NCI-H460, read-out: Log10 GI50 (converted)): 0.324 µM
- IC (TGI) ([14]; NCI-H460, read-out: Log10 TGI (converted)): 3.63 µM
- GI50 ([15]; HOP-62, read-out: Log10 GI50 (converted)): 7.24 µM
- IC (TGI) ([15]; HOP-62, read-out: Log10 TGI (converted)): 20.4 µM
- GI50 ([16]; M14, read-out: Log10 GI50 (converted)): 8.71 µM
- IC (TGI) ([16]; M14, read-out: Log10 TGI (converted)): 24 µM
- GI50 [17, 29]: 6.17 µM
- IC (TGI) [17, 30]: 19.5 µM
- GI50 ([18]; HT-29, HT29, read-out: Log10 GI50 (converted)): 0.851 µM
- IC (TGI) ([18]; HT-29, HT29, read-out: Log10 TGI (converted)): 10.7 µM
- GI50 ([19]; HCT-116, read-out: Log10 GI50 (converted)): 0.0646 µM
- IC (TGI) ([19]; HCT-116, read-out: Log10 TGI (converted)): 10.7 µM
- GI50 ([20]; A498, read-out: Log10 GI50 (converted)): 0.0389 µM
- IC (TGI) ([20]; A498, read-out: Log10 TGI (converted)): 0.166 µM
- GI50 ([21]; TK-10, read-out: Log10 GI50 (converted)): 1.91 µM
- IC (TGI) ([21]; TK-10, read-out: Log10 TGI (converted)): 10.7 µM
- GI50 [22, 29]: 9.77 µM
- IC (TGI) [22, 30]: 56.2 µM
- GI50 ([23]; OVCAR-4, read-out: Log10 GI50 (converted)): 0.575 µM
- IC (TGI) ([23]; OVCAR-4, read-out: Log10 TGI (converted)): 12.3 µM
- GI50 ([24]; SNB-19, read-out: Log10 GI50 (converted)): 12.3 µM
- IC (TGI) ([24]; SNB-19, read-out: Log10 TGI (converted)): 52.5 µM
- GI50 [25, 29]: 3.16 µM
- IC (TGI) [25, 30]: 12.3 µM
- GI50 [26, 29]: 10.5 µM
- IC (TGI) [26, 30]: 22.4 µM
- GI50 ([27]; SK-MEL-5, read-out: Log10 GI50 (converted)): 2.63 µM
- IC (TGI) ([27]; SK-MEL-5, read-out: Log10 TGI (converted)): 8.91 µM
- GI50 [28]: 13.2 µM
